# Data published in US6881719B2, “β-turn peptidomimetic cyclic compounds” (McGill University, priority 2000, dated 2005).
# Legend:
# cell surface TrkA = biological target: T1, cell surface TrkA (Homo sapiens, UniProt P04629); experiment: FACScan competition of mAb 5C3 binding on 4-3.6 cells; conditions: for % Maximal binding of mAb 5C3: mAb 1 nM
# T1 construct: expressed in transfected cells
# Description: (§1) The 4-3.6 cells are B104 cells stably transfected with human trkA cDNA, and express equal levels of p75 and TrkA (TrkA+ p75+). For screening agents that activate or antagonize TrkC receptors, NIH3T3 fibroblasts were stably transfected with human TrkC cDNA. These cells respond to the ligand NT-3. For screening agents that activate or antagonize TrkA receptors, NIH3T3 fibroblasts were stably transfected with human TrkA cDNA. These cells respond to the ligand NGF.
# (§2) FACScan binding assays: 4-3.6 cells (2×10^5) in FACScan binding buffer (PBS, 0.5% BSA, and 0.1% NaN3) were immunostained as described (Saragovi et al., 1998). Saturating anti-TrkA mAb 5C3, or anti-p75 mAb MC192, or control non-binding IgGs were added to cells for 1 hour at 4° C., in the presence or absence of D3 as competitor. Excess primary antibody was washed off, and cells were immunostained with fluorescinated goat-anti-mouse IgG secondary antibody. Cells were acquired on a FACScan and mean channel fluorescence of bell-shaped histograms were analyzed using the LYSIS II program.
# [1] = biological target: T2, TrkA•TrkA homodimers (4-3.6 cells) (Homo sapiens, UniProt P04629); experiment: Detection of putative TrkA•TrkA homodimers by cross-linking and western blot; assay type: cell-based
# T2 construct: expressed in transfected cells
# T2 sequence (P04629 33-796): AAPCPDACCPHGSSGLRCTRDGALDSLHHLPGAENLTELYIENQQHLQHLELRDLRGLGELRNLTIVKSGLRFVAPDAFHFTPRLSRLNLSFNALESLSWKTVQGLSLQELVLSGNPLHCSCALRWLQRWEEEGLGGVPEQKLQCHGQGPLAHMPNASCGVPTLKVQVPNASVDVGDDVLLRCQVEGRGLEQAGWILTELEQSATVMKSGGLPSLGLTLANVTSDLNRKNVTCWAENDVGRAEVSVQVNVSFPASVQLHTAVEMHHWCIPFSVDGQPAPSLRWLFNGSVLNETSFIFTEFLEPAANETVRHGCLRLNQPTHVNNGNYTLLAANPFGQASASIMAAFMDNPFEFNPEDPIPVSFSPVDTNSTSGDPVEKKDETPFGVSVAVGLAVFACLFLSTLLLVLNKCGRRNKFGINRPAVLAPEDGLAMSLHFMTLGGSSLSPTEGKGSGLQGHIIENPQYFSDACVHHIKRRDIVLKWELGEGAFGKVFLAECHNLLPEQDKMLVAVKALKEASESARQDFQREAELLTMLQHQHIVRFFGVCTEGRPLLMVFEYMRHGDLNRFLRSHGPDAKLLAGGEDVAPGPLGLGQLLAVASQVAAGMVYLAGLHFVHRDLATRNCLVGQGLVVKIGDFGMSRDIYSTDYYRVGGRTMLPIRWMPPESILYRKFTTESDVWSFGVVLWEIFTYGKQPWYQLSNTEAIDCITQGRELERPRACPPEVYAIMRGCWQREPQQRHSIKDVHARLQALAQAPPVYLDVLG
# Protocol: In FIG. 2, 4-3.6 cells were exposed to TrkA ligands as per Table 5 (lanes 1-4) or no ligand (lanes 5 and 6), and chemically cross-linked (lanes 1-5) or not cross-linked (lane 6). Cell lysates were western blotted with anti-TrkA 203 antisera.
# Live 4-3.6 cells suspended in PBS were treated with the indicated ligand(s) for 40 min at 4° C. to allow binding. Cells were then washed in PBS, cross-linked with the membrane impermeable cross-linker disuccinimidyl suberate (DSS, Pierce; 1 mM DSS, 15 minutes at 15° C.). Unreacted DSS was quenched with 5 mM ammonium acetate. Then cells were either lysed directly in SDS sample buffer (whole cell lysate), or lysed in non-ionic detergent NP-40 and immunoprecipitated with anti-Trk or anti-p75 antibodies as described (LeSauteur et al., 1996). […] For western blot analysis, equal amounts of protein or cell equivalents for each sample were resolved in a 5-10% SDS-PAGE gradient, transferred to nitrocellulose membranes (Xymotech Biosystems, Montréal, Qc), and blotted with anti-Trk polyclonal antibody 203 that recognizes the intracellular domain of Trk. Blots were visualized using the enhanced chemiluminescence (ECL) system (New England Nuclear, Boston, Mass.).
# [2] = test system: wild type NIH3T3 fibroblasts; experiment: Cell survival (MTT), NIH wt; assay type: cell-based; conditions: 72 hours
# Description: as §1
# (§3) Cell lines: 5,000 cells/well in protein-free media (PFHM-II, GIBCO, Toronto) containing 0.2% bovine serum albumin (BSA) (Crystalline fraction V, Sigma, St. Louis, Mo.) were seeded in 96 well plates (Falcon, Mississauga, Ontario). The cultures were untreated, or treated with the indicated test or control ligands. Cell viability was quantitated using the MTT assay after 56-72 hours of culture. […] The OD of untreated cells were subtracted. The higher optical density of untreated primary cultures is likely due to cellular heterogeneity and to endogenous production of limiting amounts of growth factors.
# [3] = biological target: T3, cell surface TrkA (4-3.6 cells, p75+ TrkA+) (Homo sapiens, UniProt P04629); experiment: FACScan binding of D3-biotin to 4-3.6 cells
# T3 construct: expressed in transfected cells
# T3 sequence (P04629 33-796): as above
# Description: as §1, §2
# FACScan analysis featuring the secondary fluorescent agent avidin-FITC was used to detect binding of D3-biotin to the cell surface (Table 1). The 4-3.6 cells (p75+TrkA+) had fluorescence approximately 4 times greater for D3-biotin than for a background control peptide-biotin.
# B104 cells = experiment: Cell survival control, B104 cells; assay type: cell-based, rat
# Description: as §1, §3
# DRG neuronal cultures = experiment: Morphometric analysis of DRG dissociated neurons (neurite outgrowth); assay type: cell-based, rat; conditions: 8 days
# Protocol: In FIG. 1 primary neuronal DRG cultures were treated as indicated for 8 days, and cell differentiation was studied morphometrically. Magnification 60×. Pictures representative of 3 independent experiments.
# Fetal rat DRG primary cultures were established from Sprague Dawley day 17 rat embryos. All ganglia were dissected and dissociated first enzymatically with trypsin and then mechanically. Dissociated cells were cultured (10^5 cells/well) in 96 well plates pre-coated with collagen, and grown for a total of 8 days in Neuro Basal Medium containing N2 supplement (GIBCO, Toronto), antibiotics, and L-glutamine. These DRG cultures are ˜85% TrkA-expressing and are heavily dependent on TrkA signals for survival.
# The effect of D3 on TrkA-mediated cellular differentiation was assessed using two independent assays: morphometric analysis of DRG dissociated neurons and induction of ChAT activity in septal neuronal cultures.
# [4] = Enhancement of trophic effect of EGF; assay type: cell-based
# wild type HEK293 cells = experiment: Cell survival control, wild type HEK293 cells; assay type: cell-based
# Protocol: as §3
# [5] = biological target: T4, NIH3T3 fibroblasts expressing TrkA (Homo sapiens, UniProt P04629); experiment: Cell survival (MTT), NIH-TrkA; assay type: cell-based; conditions: for NIH-TrkA % Protection: 72 hours;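 for NIH-TrkA % Protection: 100% equals survival with optimal NGF at 1 nM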
# T4 construct: expressed in transfected cells; host or cells: NIH3T3 fibroblasts
# T4 sequence (P04629 33-796): as above
# Description: as §1, with “These cells respond to the ligand NT-3.” left out, “cDNA.” for “cDNA. These cells respond to the ligand NGF.”
# as §3, with “subtracted.” for “subtracted. The higher optical density of untreated primary cultures is likely due to cellular heterogeneity and to endogenous production of limiting amounts of growth factors.”
# 4-3.6 cells (p75+TrkA+) = experiment: Cell survival (MTT), 4-3.6 cells; assay type: cell-based, rat; conditions: 72 hours;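 for % Protection: 100% equals survival with optimal NGF at 1 nM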
# Description: as §1, §3
# T1 sequence (P04629 33-796): as above
smiles,measurement,setting,value
"NCCCC[C@@H]1NC(=O)[C@H](CCC(=O)O)NC(=O)c2cc([N+](=O)[O-])ccc2OCCC(C(=O)NCC(=O)O)NC1=O (stereo partly drawn) [D3, EKHse-G-OH]",Kd,"cell surface TrkA; estimated from experimental conditions, read-out: Kd for D3•TrkA interactions",~2 µM
same,IC50,"cell surface TrkA; intact 4-3.6 cells, on average, read-out: IC50, decrease of mAb 5C3•TrkA interactions",4 µM
same,% Maximal binding of mAb 5C3,cell surface TrkA; competitor 0.20 μM,95 ± 4%
same,% Maximal binding of mAb 5C3,cell surface TrkA; competitor 1 μM,80 ± 3%
same,% Maximal binding of mAb 5C3,cell surface TrkA; competitor 5 μM,53 ± 5%
same,% Maximal binding of mAb 5C3,cell surface TrkA; competitor 40 μM,33 ± 4%
same,"intensity of the Mr 300 kDa band (TrkA dimers), standardized to 1 nM NGF (100%)",[1]; 10 pM NGF + 10 μM D3,77±7%
same,"intensity of the Mr 300 kDa band (TrkA dimers), standardized to 1 nM NGF (100%)",[1]; 10 μM D3 alone,21±4%
same,NIH wt % Protection,[2]; agent 10 μM + 10 pM NGF,0 ± 3%
same,NIH wt % Protection,[2]; agent 10 μM alone,−3 ± 5%
same,competition of D3-biotin binding,[3]; 10-fold molar excess of D3,abolished binding of D3-biotin
same,MCF (mean channel fluorescence),[3]; D3-biotin 20 μM + D3 200 μM as competitor,17 ± 7
same,protection from apoptosis,B104 cells,neither D3 nor NGF protected
same,neurite outgrowth,DRG neuronal cultures; D3 alone,undergo neurite outgrowth in response to D3
same,potentiation of NGF effect on neurite outgrowth,DRG neuronal cultures; D3 with NGF,potentiates the effect of NGF
same,enhancement of the trophic effect of EGF,[4],did not enhance
same,protection from apoptosis,wild type HEK293 cells,neither D3 nor NGF protected
same,enhancement of NGF protection,[5]; NIH3T3 cells stably transfected with TrkA cDNA,enhanced NGF protection
same,NIH-TrkA % Protection,[5]; agent 10 μM + 10 pM NGF,51 ± 5%
same,NIH-TrkA % Protection,[5]; agent 10 μM alone,8 ± 4%
same,% Protection,4-3.6 cells (p75+TrkA+); compound 10 μM + 10 pM NGF,55 ± 3%
same,Optical Density,4-3.6 cells (p75+TrkA+); compound 10 μM + 10 pM NGF,255 ± 14
same,% Protection,4-3.6 cells (p75+TrkA+); compound 10 μM alone,8 ± 2%
same,Optical Density,4-3.6 cells (p75+TrkA+); compound 10 μM alone,95 ± 9
